US6686379B2, “Salt form of pantoprazole” (Altana Pharma AG, priority 1998, dated 2004)

Assay: storage stability of the solid salt forms at 90° C. for 4 days (discoloration, decomposition)
Format: physicochemical

| SMILES | discoloration or decomposition (4 days at 90° C.) | stability (4 days at 90° C.) | stability properties in comparison with other forms (compared with pantoprazole itself, pantoprazole sodium sesquihydrate and pantoprazole sodium monohydrate) | formation of decomposition products (4 days at 90° C.) |
| --- | --- | --- | --- | --- |
| COc1ccnc(C[S+]([O-])c2nc3cc(OC(F)F)ccc3[n-]2)c1OC.COc1ccnc(C[S+]([O-])c2nc3cc(OC(F)F)ccc3[n-]2)c1OC.O.O.[Mg+2] (centres unmarked) [pantoprazole magnesium dihydrate] | almost no discoloration or decomposition | completely stable | very considerably improved stability properties | – |
| COc1ccnc(C[S+]([O-])c2nc3ccc(OC(F)F)cc3[nH]2)c1OC (centres unmarked) [pantoprazole sodium sesquihydrate, sodium[5-[difluoromethoxy]-2-[[3,4-dimethoxy-2-pyridinyl]methyl]sulfinyl]-1H-benzimidazolide]sesquihydrate, reference compound] | turn brown-red | – | – | considerable amounts of decomposition products |
